Legend:
Test in all cases: kinome screen (33PanQinase)
Type in all cases: biochemical
FGR = target: T1, FGR (Homo sapiens, UniProt P09769)
T1 construct: purchased Reaction Biology Europe GmbH (formerly ProQinase)
Method: (§1) The Kinome Screening was performed by Reaction Biology Europe GmbH (http://reactionbiology.com; Freiburg i. Br., Germany).

GRK6 = target: T2, GRK6 (Homo sapiens, UniProt P43250)
T2 construct: purchased Reaction Biology Europe GmbH (formerly ProQinase)
Method: as §1

MAP3K1 = target: T3, MAP3K1 (Homo sapiens, UniProt Q13233)
T3 construct: purchased Reaction Biology Europe GmbH (formerly ProQinase)
T3 sequence (Q13233 whole entry): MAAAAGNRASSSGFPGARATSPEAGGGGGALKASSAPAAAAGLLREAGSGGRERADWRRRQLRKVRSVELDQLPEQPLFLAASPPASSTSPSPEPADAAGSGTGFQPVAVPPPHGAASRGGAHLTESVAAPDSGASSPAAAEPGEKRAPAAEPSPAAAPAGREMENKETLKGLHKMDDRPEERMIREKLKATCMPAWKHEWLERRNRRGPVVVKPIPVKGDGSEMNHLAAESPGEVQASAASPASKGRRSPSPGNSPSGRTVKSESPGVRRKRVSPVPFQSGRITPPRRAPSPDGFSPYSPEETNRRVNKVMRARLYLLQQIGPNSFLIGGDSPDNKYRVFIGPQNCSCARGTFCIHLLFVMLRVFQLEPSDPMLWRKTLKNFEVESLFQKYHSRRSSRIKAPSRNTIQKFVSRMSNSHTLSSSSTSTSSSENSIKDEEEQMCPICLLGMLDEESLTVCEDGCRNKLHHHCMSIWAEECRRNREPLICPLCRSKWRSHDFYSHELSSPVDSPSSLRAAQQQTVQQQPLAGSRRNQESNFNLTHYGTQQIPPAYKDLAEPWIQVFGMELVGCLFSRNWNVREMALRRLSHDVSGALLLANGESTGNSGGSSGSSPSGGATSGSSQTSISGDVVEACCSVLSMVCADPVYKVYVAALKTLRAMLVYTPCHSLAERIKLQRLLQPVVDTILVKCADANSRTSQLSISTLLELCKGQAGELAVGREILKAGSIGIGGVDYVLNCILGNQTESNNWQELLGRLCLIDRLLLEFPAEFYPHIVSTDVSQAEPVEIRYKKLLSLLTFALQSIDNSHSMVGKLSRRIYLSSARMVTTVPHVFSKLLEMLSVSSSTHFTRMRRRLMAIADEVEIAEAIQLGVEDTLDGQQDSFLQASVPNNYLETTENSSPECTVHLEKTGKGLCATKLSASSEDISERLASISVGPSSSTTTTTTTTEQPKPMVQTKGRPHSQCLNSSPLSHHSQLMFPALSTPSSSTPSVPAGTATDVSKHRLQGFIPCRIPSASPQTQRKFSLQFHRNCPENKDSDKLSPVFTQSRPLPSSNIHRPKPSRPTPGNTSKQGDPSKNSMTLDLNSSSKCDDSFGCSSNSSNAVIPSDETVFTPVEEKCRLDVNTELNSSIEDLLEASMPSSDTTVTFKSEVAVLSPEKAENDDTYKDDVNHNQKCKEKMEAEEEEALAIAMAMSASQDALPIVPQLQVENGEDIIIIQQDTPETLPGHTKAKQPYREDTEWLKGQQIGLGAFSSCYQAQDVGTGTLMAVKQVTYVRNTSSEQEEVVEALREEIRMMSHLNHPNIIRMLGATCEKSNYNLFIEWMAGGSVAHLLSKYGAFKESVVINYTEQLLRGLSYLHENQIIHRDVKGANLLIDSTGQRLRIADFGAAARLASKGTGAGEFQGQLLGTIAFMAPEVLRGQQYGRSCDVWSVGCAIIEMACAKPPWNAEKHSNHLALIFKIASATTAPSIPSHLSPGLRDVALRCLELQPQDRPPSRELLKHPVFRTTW
Method: as §1

MEK5 = target: T4, MEK5 (Homo sapiens, UniProt Q13163)
T4 construct: purchased Reaction Biology Europe GmbH (formerly ProQinase)
T4 sequence (Q13163 1-448): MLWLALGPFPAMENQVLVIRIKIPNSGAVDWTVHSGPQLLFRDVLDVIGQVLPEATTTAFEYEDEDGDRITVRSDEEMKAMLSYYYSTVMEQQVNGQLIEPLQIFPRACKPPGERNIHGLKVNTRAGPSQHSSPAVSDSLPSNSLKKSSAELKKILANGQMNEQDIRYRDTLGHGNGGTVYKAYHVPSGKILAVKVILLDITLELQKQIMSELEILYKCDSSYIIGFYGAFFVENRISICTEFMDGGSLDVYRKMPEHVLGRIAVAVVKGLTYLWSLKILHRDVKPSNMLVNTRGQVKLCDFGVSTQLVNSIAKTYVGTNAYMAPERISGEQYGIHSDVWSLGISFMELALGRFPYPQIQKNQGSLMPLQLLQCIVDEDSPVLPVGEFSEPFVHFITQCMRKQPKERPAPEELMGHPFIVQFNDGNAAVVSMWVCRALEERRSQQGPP
Method: as §1

MST4 = target: T5, MST4 (Homo sapiens, UniProt Q9P289)
T5 construct: purchased Reaction Biology Europe GmbH (formerly ProQinase)
T5 sequence (Q9P289 whole entry): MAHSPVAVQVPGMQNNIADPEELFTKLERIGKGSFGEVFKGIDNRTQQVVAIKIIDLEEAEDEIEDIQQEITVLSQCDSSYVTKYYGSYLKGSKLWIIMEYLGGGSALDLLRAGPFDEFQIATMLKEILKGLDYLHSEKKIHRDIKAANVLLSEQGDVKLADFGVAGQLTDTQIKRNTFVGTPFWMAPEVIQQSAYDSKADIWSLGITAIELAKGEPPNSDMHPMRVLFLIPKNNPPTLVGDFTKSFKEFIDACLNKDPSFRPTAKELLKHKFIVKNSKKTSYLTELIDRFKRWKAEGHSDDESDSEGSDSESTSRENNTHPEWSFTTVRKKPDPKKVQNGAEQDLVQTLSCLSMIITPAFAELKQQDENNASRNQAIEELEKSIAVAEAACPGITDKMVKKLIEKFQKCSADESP
Method: as §1

PRKD2 = target: T6, PRKD2 (Homo sapiens, UniProt Q9BZL6)
T6 construct: purchased Reaction Biology Europe GmbH (formerly ProQinase)
T6 sequence (Q9BZL6 1-878): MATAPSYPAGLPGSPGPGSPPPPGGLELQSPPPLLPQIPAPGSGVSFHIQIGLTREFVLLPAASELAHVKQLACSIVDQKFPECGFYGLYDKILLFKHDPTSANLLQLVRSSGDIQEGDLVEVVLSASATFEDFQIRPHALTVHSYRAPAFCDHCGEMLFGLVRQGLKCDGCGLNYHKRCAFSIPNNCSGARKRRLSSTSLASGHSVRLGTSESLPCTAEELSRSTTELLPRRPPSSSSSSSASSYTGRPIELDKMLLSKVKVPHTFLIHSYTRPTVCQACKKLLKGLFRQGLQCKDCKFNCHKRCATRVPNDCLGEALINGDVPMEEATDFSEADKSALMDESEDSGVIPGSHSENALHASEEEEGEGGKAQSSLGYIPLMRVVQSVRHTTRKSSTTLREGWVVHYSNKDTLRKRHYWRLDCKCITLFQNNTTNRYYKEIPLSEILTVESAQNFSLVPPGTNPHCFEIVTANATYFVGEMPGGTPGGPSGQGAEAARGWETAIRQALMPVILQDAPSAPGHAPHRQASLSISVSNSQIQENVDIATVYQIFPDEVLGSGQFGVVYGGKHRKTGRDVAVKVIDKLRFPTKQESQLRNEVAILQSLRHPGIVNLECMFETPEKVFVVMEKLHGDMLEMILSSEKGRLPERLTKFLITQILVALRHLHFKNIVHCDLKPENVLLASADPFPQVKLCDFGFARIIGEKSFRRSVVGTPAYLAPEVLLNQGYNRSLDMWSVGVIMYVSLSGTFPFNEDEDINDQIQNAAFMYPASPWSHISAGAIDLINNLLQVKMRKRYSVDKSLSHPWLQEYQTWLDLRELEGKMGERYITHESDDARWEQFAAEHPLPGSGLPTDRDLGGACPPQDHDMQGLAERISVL
Method: as §1

RPS6KA5 = target: T7, RPS6KA5 (Homo sapiens, UniProt O75582)
T7 construct: purchased Reaction Biology Europe GmbH (formerly ProQinase)
T7 sequence (O75582 whole entry): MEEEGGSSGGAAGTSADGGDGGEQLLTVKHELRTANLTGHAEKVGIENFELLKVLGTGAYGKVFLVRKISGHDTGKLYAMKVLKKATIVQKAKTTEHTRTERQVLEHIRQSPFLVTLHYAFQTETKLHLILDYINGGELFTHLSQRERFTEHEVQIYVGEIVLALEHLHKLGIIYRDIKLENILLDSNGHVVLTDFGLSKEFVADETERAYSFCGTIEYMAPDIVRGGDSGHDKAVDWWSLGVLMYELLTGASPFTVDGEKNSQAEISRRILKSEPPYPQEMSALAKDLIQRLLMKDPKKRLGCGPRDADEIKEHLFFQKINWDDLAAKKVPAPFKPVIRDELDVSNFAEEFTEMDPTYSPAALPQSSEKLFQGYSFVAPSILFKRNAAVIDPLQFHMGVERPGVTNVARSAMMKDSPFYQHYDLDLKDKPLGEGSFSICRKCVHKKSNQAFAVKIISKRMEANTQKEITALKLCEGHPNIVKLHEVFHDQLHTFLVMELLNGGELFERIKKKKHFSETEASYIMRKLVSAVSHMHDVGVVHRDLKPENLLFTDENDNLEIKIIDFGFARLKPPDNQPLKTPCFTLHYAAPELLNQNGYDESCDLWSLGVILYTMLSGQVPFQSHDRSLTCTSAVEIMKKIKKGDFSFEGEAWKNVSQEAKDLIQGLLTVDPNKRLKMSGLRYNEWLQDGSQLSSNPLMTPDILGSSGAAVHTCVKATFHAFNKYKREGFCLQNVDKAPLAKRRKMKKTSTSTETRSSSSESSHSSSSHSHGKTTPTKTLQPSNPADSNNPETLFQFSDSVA
Method: as §1

TBK1 = target: T8, TBK1 (Homo sapiens, UniProt Q9UHD2)
T8 construct: purchased Reaction Biology Europe GmbH (formerly ProQinase)
T8 sequence (Q9UHD2 1-729): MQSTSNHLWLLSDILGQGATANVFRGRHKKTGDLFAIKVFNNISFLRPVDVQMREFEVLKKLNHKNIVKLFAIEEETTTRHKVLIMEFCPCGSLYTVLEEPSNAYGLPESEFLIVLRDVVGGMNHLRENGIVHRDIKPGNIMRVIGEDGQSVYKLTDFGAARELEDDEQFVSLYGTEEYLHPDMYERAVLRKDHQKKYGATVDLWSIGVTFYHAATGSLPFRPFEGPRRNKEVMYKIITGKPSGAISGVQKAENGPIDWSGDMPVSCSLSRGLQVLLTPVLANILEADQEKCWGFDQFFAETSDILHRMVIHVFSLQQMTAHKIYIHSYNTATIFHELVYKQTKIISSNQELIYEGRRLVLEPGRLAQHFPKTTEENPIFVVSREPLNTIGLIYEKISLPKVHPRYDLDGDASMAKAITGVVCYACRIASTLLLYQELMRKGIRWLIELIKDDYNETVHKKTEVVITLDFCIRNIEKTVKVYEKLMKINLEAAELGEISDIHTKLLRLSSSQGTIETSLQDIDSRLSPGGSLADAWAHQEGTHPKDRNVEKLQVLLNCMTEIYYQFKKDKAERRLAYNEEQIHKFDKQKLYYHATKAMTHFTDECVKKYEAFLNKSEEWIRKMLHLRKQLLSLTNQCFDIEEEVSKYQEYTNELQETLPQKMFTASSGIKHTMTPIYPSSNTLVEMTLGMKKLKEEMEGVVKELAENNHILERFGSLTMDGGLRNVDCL
Method: as §1

TSK2 = target: T9, TSK2 (Homo sapiens, UniProt Q96PF2)
T9 construct: purchased Reaction Biology Europe GmbH (formerly ProQinase)
T9 sequence (Q96PF2 1-358): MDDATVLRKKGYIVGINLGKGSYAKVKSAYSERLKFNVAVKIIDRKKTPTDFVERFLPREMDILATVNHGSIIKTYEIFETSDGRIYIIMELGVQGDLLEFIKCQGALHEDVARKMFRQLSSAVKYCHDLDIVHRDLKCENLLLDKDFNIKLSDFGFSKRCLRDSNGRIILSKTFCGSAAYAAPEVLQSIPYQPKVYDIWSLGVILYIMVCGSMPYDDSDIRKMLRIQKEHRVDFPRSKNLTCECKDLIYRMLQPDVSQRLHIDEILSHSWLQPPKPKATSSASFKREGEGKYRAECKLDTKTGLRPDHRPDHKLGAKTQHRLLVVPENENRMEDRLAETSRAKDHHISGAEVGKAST
Method: as §1

T1 sequence (P09769 whole entry): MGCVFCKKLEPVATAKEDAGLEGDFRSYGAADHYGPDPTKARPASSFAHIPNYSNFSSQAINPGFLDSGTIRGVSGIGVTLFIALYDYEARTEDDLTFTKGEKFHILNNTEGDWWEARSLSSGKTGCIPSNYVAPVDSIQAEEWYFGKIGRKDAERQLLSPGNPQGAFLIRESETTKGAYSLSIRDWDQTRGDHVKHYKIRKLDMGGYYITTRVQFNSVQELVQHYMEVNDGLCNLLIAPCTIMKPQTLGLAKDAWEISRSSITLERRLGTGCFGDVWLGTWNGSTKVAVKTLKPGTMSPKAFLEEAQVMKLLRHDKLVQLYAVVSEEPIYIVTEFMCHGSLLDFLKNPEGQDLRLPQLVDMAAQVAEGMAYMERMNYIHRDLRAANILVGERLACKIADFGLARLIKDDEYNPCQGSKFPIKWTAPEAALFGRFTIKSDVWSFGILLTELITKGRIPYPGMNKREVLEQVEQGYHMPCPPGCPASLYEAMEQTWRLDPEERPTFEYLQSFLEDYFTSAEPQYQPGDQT
T2 sequence (P43250 whole entry): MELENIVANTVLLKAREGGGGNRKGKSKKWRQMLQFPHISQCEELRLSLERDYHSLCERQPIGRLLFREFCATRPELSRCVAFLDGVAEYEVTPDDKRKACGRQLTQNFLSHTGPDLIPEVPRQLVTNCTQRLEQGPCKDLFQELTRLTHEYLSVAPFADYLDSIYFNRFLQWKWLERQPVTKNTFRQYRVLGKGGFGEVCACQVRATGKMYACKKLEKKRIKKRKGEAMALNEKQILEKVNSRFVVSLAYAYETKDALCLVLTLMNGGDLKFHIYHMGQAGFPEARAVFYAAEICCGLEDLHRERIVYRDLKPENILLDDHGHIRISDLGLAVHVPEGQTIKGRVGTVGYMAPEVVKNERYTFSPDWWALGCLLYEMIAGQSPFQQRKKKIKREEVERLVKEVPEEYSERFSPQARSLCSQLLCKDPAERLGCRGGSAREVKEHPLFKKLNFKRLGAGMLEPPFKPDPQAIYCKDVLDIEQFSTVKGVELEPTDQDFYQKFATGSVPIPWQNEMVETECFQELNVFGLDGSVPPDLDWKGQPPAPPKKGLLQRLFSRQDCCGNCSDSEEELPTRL

With `c1ccc(CNc2cc(-c3c[nH]c4ncccc34)ccn2)cc1` [meriolin 36] the residual kinase activity (FGR; 0.3 µM) was 40 % of control, the residual kinase activity (FGR; 3 µM) was 6 % of control and the residual kinase activity (GRK6; 0.3 µM) was 96 % of control. For the same compound, the residual kinase activity (GRK6; 3 µM) was 54 % of control, the residual kinase activity (MAP3K1; 0.3 µM) was 94 % of control and the residual kinase activity (MAP3K1; 3 µM) was 93 % of control. The residual kinase activity (MEK5; 0.3 µM) was 30 % of control, the residual kinase activity (MEK5; 3 µM) was 12 % of control and the residual kinase activity (MST4; 0.3 µM) was 52 % of control. The residual kinase activity (MST4; 3 µM) was 12 % of control, the residual kinase activity (PRKD2; 0.3 µM) was 68 % of control and the residual kinase activity (PRKD2; 3 µM) was 25 % of control. For the same compound, the residual kinase activity (RPS6KA5; 0.3 µM) was 46 % of control, the residual kinase activity (RPS6KA5; 3 µM) was 15 % of control and the residual kinase activity (TBK1; 0.3 µM) was 48 % of control. For the same compound, the residual kinase activity (TBK1; 3 µM) was 10 % of control, the residual kinase activity (TSK2; 0.3 µM) was 103 % of control and the residual kinase activity (TSK2; 3 µM) was 94 % of control.
`COc1ccnc2[nH]cc(-c3cc(N)nc(N)c3)c12` [meriolin 16] was tested, and the residual kinase activity (FGR; 0.03 µM) was 111 % of control, the residual kinase activity (FGR; 0.3 µM) was 105 % of control and the residual kinase activity (GRK6; 0.03 µM) was 98 % of control. The residual kinase activity (GRK6; 0.3 µM) was 93 % of control, the residual kinase activity (MAP3K1; 0.03 µM) was 105 % of control and the residual kinase activity (MAP3K1; 0.3 µM) was 106 % of control. For the same compound, the residual kinase activity (MEK5; 0.03 µM) was 35 % of control, the residual kinase activity (MEK5; 0.3 µM) was 31 % of control and the residual kinase activity (MST4; 0.03 µM) was 78 % of control. For the same compound, the residual kinase activity (MST4; 0.3 µM) was 81 % of control, the residual kinase activity (PRKD2; 0.03 µM) was 87 % of control and the residual kinase activity (PRKD2; 0.3 µM) was 37 % of control. The residual kinase activity (RPS6KA5; 0.03 µM) was 89 % of control, the residual kinase activity (RPS6KA5; 0.3 µM) was 82 % of control and the residual kinase activity (TBK1; 0.03 µM) was 114 % of control. The residual kinase activity (TBK1; 0.3 µM) was 99 % of control, the residual kinase activity (TSK2; 0.03 µM) was 107 % of control and the residual kinase activity (TSK2; 0.3 µM) was 92 % of control.

From PMC11167047 (Cell Death Discovery, 2024)
